The target in assay [1] is T1, GST tagged LXRalpha LBD (ligand binding domain) (Homo sapiens, UniProt Q13133).
T1 construct: purchased Invitrogen pv4655
T1 sequence (Q13133 209-447 limits assumed): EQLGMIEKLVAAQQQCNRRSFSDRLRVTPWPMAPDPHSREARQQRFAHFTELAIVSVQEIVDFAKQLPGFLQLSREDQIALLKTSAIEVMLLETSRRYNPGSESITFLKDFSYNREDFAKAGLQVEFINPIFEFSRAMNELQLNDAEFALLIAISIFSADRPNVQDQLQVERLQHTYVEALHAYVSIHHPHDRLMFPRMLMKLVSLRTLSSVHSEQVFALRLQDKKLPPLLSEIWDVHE
The assay can be described thus: LanthaScreen TR-FRET Liver X Receptor Coactivator Assay, LXR alpha-LBD. Type of assay: biochemical. To be noted: relative to reference T0901317; for LXR alpha IP (nM) / EC50: Inflection Point (potency), co-activator recruitment; for Emax: activity at max dose (efficacy), read-out: LXR alpha act @ max dose (%); for EC50: read-out: LXR alpha IP. A digest of the protocol:
(§1)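 Compound-induced coactivator recruitment measured by TR-FRET between a terbium anti-GST antibody bound to the GST-LBD (LXRα or LXRβ, human) and a fluorescein coactivator peptide, after incubation at room temperature. Potency (inflection point) and efficacy (Emax) referenced to T0901317.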

For assay [2], the target named is T2, GST tagged LXRbeta LBD (ligand binding domain) (Homo sapiens, UniProt P55055).
T2 construct: purchased Invitrogen pv4658.pps
T2 sequence (P55055 222-460 limits assumed): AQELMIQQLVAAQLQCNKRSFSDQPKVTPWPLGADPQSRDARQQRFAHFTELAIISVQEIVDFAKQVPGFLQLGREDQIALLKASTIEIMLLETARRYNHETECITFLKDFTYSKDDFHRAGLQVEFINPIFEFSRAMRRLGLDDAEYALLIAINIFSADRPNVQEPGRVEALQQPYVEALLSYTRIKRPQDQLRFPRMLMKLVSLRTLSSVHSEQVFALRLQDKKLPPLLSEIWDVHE
Description: LanthaScreen TR-FRET Liver X Receptor Coactivator Assay, LXR beta-LBD. The format is biochemical. The settings on record: relative to reference T0901317; for EC50: Inflection Point (potency), co-activator recruitment, read-out: LXR beta IP; for Emax: activity at max dose (efficacy), read-out: LXR beta act @ max dose (%). A digest of the protocol: as §1

With `O=C(c1ccc(N2CCC(C3CCN(C(=O)[C@](O)(c4ccccc4)C(F)(F)F)CC3)CC2)cc1Cl)N1CC(n2cccn2)C1` [Example E-40, (2R)-3-[1′-(3-chloro-4-{[3-(1H-pyrazol-1-yl)azetidin-1-yl]carbonyl}phenyl)-4,4′-bipiperidin-1-yl]-1,1,1-trifluoro-3-oxo-2-phenylpropan-2-ol], in assay [1], the “LXR alpha IP (nM)” value is listed as “NO IP” and the Emax came to 39%. Further, in assay [2], the EC50 is 297 nM and the Emax was found to be 52%.
In the case of `O=C(c1ccc(N2CCC(C3CCN(C(=O)[C@](O)(c4ccccc4)C(F)(F)F)CC3)CC2)cc1Cl)N1CC(N2CCCCC2)C1` [Example E-44, (2R)-3-(1′-{3-chloro-4-[(3-piperidin-1-ylazetidin-1-yl)carbonyl]phenyl}-4,4′-bipiperidin-1-yl)-1,1,1-trifluoro-3-oxo-2-phenylpropan-2-ol], in assay [1], the EC50 was found to be 1690 nM and the Emax amounted to 31%. In assay [2], the EC50 is 90 nM and the Emax came out at 67%.
In the same order, the values of `CN(C)C(=O)c1ccc(N2CCC(C3CCN(C(=O)C(O)(c4ccccc4)C(F)(F)F)CC3)CC2)cc1Cl` (centres unmarked) [Example A-36, 2-chloro-N,N-dimethyl-4-[1′-(3,3,3-trifluoro-2-hydroxy-2-phenylpropanoyl)-4,4′-bipiperidin-1-yl]benzamide] are 1800 nM, 27%, 108 nM and 113%.
For the molecule `CC1CCCN(C(=O)c2ccc(N3CCC(C4CCN(C(=O)[C@](O)(c5ccccc5)C(F)(F)F)CC4)CC3)cc2Cl)C1` (stereo partly drawn) [Example E-38, (2R)-3-(1′-{3-chloro-4-[(3-methylpiperidin-1-yl)carbonyl]phenyl}-4,4′-bipiperidin-1-yl)-1,1,1-trifluoro-3-oxo-2-phenylpropan-2-ol], in assay [1], the “LXR alpha IP (nM)” value is recorded as “NO IP” and the Emax was 0%. In assay [2], the EC50 is 276 nM and the Emax amounted to 57%.
Take `CN(CCO)C(=O)c1ccc(N2CCC(C3CCN(C(=O)[C@](O)(c4ccccc4)C(F)(F)C(F)(F)F)CC3)CC2)cc1Cl` [Example E-64, 2-chloro-N-(2-hydroxyethyl)-N-methyl-4-{1′-[(2R)-3,3,4,4,4-pentafluoro-2-hydroxy-2-phenylbutanoyl]-4,4′-bipiperidin-1-yl}benzamide]: in assay [1], the EC50 is 913 nM and the Emax was 54%. In assay [2], the EC50 is 26 nM and the Emax worked out at 146%.
`CN(C)C(=O)c1ccc(N2CCC(C3CCN(C(=O)C4(c5ccc(Cl)cc5)CCC4)CC3)CC2)cc1Cl` [Example A-47, 2-chloro-4-(1′-{[1-(4-chlorophenyl)cyclobutyl]carbonyl}-4,4′-bipiperidin-1-yl)-N,N-dimethylbenzamide]: in assay [1], the “LXR alpha IP (nM)” value is on record as “NO IP” and the Emax is 4%. Further, in assay [2], the EC50 worked out at 178 nM and the Emax was 78%.
In the case of `CN(C)C(=O)c1ccc(N2CCC(C3CCN(C(=O)OC(C)(C)C)CC3)CC2)nc1Cl` [Example B-1, tert-butyl 1′-[6-chloro-5-(dimethylcarbamoyl)pyridin-2-yl]-4,4′-bipiperidine-1-carboxylate], in assay [1], the EC50 was 1550 nM and the Emax worked out at 74%. Also, in assay [2], the EC50 stood at 20 nM and the Emax stood at 119%.
For `CN(C)C(=O)c1ccc(N2CCC(C3CCN(C(=O)C(C)(C)c4cccc(F)c4)CC3)CC2)cc1Cl` [Example A-91, 2-chloro-4-{1′-[2-(3-fluorophenyl)-2-methylpropanoyl]-4,4′-bipiperidin-1-yl}-N,N-dimethylbenzamide] the same measures were 2090 nM, 42%, 147 nM and 112%.
As for `CC(=O)Oc1ccc(C(C)(C)C(=O)N2CCC(C3CCN(c4ccc(C(=O)N(C)C)c(Cl)c4)CC3)CC2)cc1` [Example A-59, 4-(2-{1′-[3-chloro-4-(dimethylcarbamoyl)phenyl]-4,4′-bipiperidin-1-yl}-1,1-dimethyl-2-oxoethyl)phenyl acetate], in assay [1], the EC50 was 2630 nM and the Emax stood at 54%. Besides, in assay [2], the EC50 came to 91 nM and the Emax turned out to be 106%.
Take `CN(C)C(=O)c1ccc(N2CCC(C3CCN(C(=O)C(C)(C)c4ccc(O)cc4)CC3)CC2)cc1Cl` [Example A-58, 2-chloro-4-{1′-[2-(4-hydroxyphenyl)-2-methylpropanoyl]-4,4′-bipiperidin-1-yl}-N,N-dimethylbenzamide]: in assay [1], the EC50 was determined as 3690 nM and the Emax was 59%. Further, in assay [2], the EC50 was 100 nM and the Emax worked out at 112%.
Consider `CN(C)C(=O)c1ccc(N2CCC(C3CCN(C(=O)C45CC(C4)C5)CC3)CC2)cc1Cl` [Example A-15, 4-[1′-(bicyclo[1.1.1]pent-1-ylcarbonyl)-4,4′-bipiperidin-1-yl]-2-chloro-N,N-dimethylbenzamide], for which, in assay [1], the EC50 was 3130 nM and the Emax stood at 31%. In addition, in assay [2], the EC50 worked out at 314 nM and the Emax stood at 93%.
In the same order, the values of `CC(C)[C@](O)(C(=O)N1CCC(C2CCN(c3ccc(C(=O)N(C)C)c(Cl)c3)CC2)CC1)C(F)(F)F` (single isomer, unassigned) [Example A-3] are 3550 nM, 36%, 63 nM and 103%.
With `CN(CC1CC1(C)C)C(=O)c1ccc(N2CCC(C3CCN(C(=O)c4c(F)cccc4F)CC3)CC2)cc1Cl` (centres unmarked) [Example E-15, 2-chloro-4-{1′-[(2,6-difluorophenyl)carbonyl]-4,4′-bipiperidin-1-yl}-N-[(2,2-dimethylcyclopropyl)methyl]-N-methylbenzamide], in assay [1], the “LXR alpha IP (nM)” value was “NO IP” and the Emax amounted to 10%. Moreover, in assay [2], the EC50 was 283 nM and the Emax was determined as 54%.
In the case of `CC(C)C(O)(C(=O)N1CCC(C2CCN(c3ccc(C(=O)N(C)C)c(Cl)c3)CC2)CC1)C(F)(F)C(F)(F)F` (centres unmarked) [Example A-26, 2-chloro-N,N-dimethyl-4-{1′-[3,3,4,4,4-pentafluoro-2-hydroxy-2-(1-methylethyl)butanoyl]-4,4′-bipiperidin-1-yl}benzamide], in assay [1], the EC50 was 967 nM and the Emax amounted to 45%. Besides, in assay [2], the EC50 came out at 112 nM and the Emax is 103%.
For `CN(C)C(=O)c1ccc(N2CCC(C3CCN(C(=O)C4(c5ccc(F)cc5)CCC4)CC3)CC2)cc1Cl` [Example A-18, 2-chloro-4-(1′-{[1-(4-fluorophenyl)cyclobutyl]carbonyl}-4,4′-bipiperidin-1-yl)-N,N-dimethylbenzamide] the same measures were 4200 nM, 15%, 207 nM and 81%.
For `CC(C)C(O)(C(=O)N1CCC(C2CCN(c3ccc(C(=O)N4CCCC4)c(Cl)c3)CC2)CC1)C(F)(F)F` (centres unmarked) [Example E-7, 2-({1′-[3-chloro-4-(pyrrolidin-1-ylcarbonyl)phenyl]-4,4′-bipiperidin-1-yl}carbonyl)-1,1,1-trifluoro-3-methylbutan-2-ol] the same measures were 1920 nM, 32%, 108 nM and 74%.
For `Cc1ccccc1S(=O)(=O)N1CCC(C2CCN(c3ccc(C(=O)N(C)C)c(Cl)c3)CC2)CC1` [Example A-100, 2-chloro-N,N-dimethyl-4-{1′-[(2-methylphenyl)sulfonyl]-4,4′-bipiperidin-1-yl}benzamide] the same measures were 5770 nM, 48%, 140 nM and 121%.
With `CN(C)C(=O)c1ccc(N2CCC(C3CCN(C(=O)C(O)(c4cccc(Cl)c4)C(F)(F)F)CC3)CC2)cc1Cl` (centres unmarked) [Example A-50, 2-chloro-4-{1′-[2-(3-chlorophenyl)-3,3,3-trifluoro-2-hydroxypropanoyl]-4,4′-bipiperidin-1-yl}-N,N-dimethylbenzamide], in assay [1], the EC50 came out at 1010 nM and the Emax turned out to be 20%. In assay [2], the EC50 turned out to be 93 nM and the Emax turned out to be 99%.
`CN(C)C(=O)c1ccc(N2CCC(C3CCN(C(=O)c4c(F)cccc4Cl)CC3)CC2)cc1Cl` [Example A-24, 2-chloro-4-{1′-[(2-chloro-6-fluorophenyl)carbonyl]-4,4′-bipiperidin-1-yl}-N,N-dimethylbenzamide]: in assay [1], the EC50 is 4850 nM and the Emax is 31%. For the same molecule, in assay [2], the EC50 was 89 nM and the Emax was determined as 107%.
For `CN(Cc1ccon1)C(=O)c1ccc(N2CCC(C3CCN(C(=O)c4c(F)cccc4F)CC3)CC2)cc1Cl` [Example E-16, 2-chloro-4-{1′-[(2,6-difluorophenyl)carbonyl]-4,4′-bipiperidin-1-yl}-N-(isoxazol-3-ylmethyl)-N-methylbenzamide], in assay [1], the EC50 was determined as 1700 nM and the Emax stood at 38%. In assay [2], the EC50 came to 137 nM and the Emax stood at 92%.

The values are drawn from US20180305332A1, “Bispiperidinyl Derivatives as Liver X Receptor Beta Agonists, Compositions, and Their Use” (Merck Sharp & Dohme Corp., priority 2015, published 2018).
